Consider 1 compound from PMC6110523 (Biochemistry, 2018).

This experiment deals with HER2 (Homo sapiens, UniProt P04626). Nature of the experiment: DiscoverX scanELECT competition binding at […].
Sequence of HER2 (P04626 720-987 limits assumed): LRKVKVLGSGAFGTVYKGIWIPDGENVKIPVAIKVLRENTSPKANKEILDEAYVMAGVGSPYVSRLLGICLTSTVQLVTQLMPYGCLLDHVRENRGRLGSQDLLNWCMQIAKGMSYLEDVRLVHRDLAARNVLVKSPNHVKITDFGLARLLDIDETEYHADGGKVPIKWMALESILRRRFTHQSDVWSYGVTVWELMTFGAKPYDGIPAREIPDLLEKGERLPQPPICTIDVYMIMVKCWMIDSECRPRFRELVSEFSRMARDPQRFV

Regarding `CS(=O)(=O)CCNCc1ccc(-c2ccc3ncnc(Nc4ccc(OCc5cccc(F)c5)c(Cl)c4)c3c2)o1` [lapatinib], the “% control at 1 μM” value came to 0.
